# Several values for one entry are separate records, joined by “and”; a condition that tells them apart may be missing. Equal entries are not always repeated.
# Tests used:
# [1] = test system: Spontaneously Hypertensive Rats (SHR); test: Experiment 5: antihypertensive effect of the sample of Example 2 on SHR; format: in vivo, rat
# Procedure: (§1) Rats: Spontaneously Hypertensive Rats (SHR), Wistar rats are used as normal controls.
# Rat Blood Pressure Measurement: BP-98A Non-invasive Tail Artery Blood Pressure Meter, Japan Soft Rotation Co., Ltd
# Group therapy is described in the following description. Blood pressure and body weight are measured and grouped after one week of adaptive feeding in all rats. […] Eight rats in each group are treated for 2 weeks.
# The following description discussed with the blood pressure measurement. The rats are preheated at 38° C. for 5-10 minutes to avoid blood flow in the tail of the rat. The blood pressure of the rats is measured three times in a waking and quiet state, and the average value of three times was used as the blood pressure of the rats. Blood pressure is measured twice a week, once 2 hours after administration and once 24 hours after administration, to observe the immediate antihypertensive effect and after 24 hours antihypertensive effect (and the peak-to-valley ratio).
# The following description discusses with the trough-peak ratio calculation of depressurization amplitude. The difference of blood pressure before treatment minus 24 hours after administration is the trough of the range of blood pressure reduction, which is the lowest point before the next administration; the difference of blood pressure before treatment and 2 hours after administration is the peak value of blood pressure reduction, that is, the maximum point of blood pressure reduction after administration. Valley value of depressurization amplitude divided by peak value of depressurization amplitude is equal to valley-peak ratio of depressurization amplitude.
# [2] = test system: Spontaneously Hypertensive Rats (SHR); test: Experiment 1: antihypertensive effect of Dendrobium officinale extraction methods, tail artery blood pressure; format: in vivo, rat
# Procedure: as §1
# Rat Blood Pressure Measurement: BP-98A Non-invasive Tail Artery Blood Pressure Meter, Japan Soft Rotation Co., Ltd.
# Group therapy is described in the following description. Blood pressure and body weight are measured and grouped after one week of adaptive feeding in all rats. The SHR rats are divided into the water extracting group after crushing and flattening, the water extracting group after crushing, and the water extracting group after grinding into powder, all Chinese medicine groups are given 0.8 g/kg body weight of crude drug, and the amlodipine besylate tablets 0.5 mg/kg body weight are given intragastrically in amlodipine group, the hypertensive model control group is given with the same amount of saline, while the normal control group is given with the same amount of saline. Eight rats in each group were treated for 2 weeks. Blood pressure measurement: The rats are preheated at 38° C. for 5-10 minutes to avoid blood flow in the tail of the rat. The blood pressure of the rats is measured three times in a waking and quiet state, and the average value of the three measurement times is used as the blood pressure of the rats. Blood pressure is measured once a week and once 2 hours after administration.
# [3] = 2 h after administration, treatment for 1 week, medium dose 0.8 g/kg crude drug, amlodipine 0.5 mg/kg
# [4] = 2 h after administration, treatment for 2 weeks, medium dose 0.8 g/kg crude drug, amlodipine 0.5 mg/kg
# [5] = 24 h after administration, treatment for 1 week, medium dose 0.8 g/kg crude drug, amlodipine 0.5 mg/kg
# [6] = 24 h after administration, treatment for 2 weeks, medium dose 0.8 g/kg crude drug, amlodipine 0.5 mg/kg
# [7] = before treatment, medium dose group 0.8 g/kg crude drug, amlodipine group 0.5 mg/kg
# [8] = treatment for 1 week, medium dose 0.8 g/kg crude drug, amlodipine 0.5 mg/kg
# [9] = treatment for 2 weeks, medium dose 0.8 g/kg crude drug, amlodipine 0.5 mg/kg
# [10] = 2 h after administration, treatment for 1 week, 0.8 g/kg crude drug, amlodipine 0.5 mg/kg
# [11] = 2 h after administration, treatment for 2 weeks, 0.8 g/kg crude drug, amlodipine 0.5 mg/kg
# [12] = 2 h after administration, treatment for 2 weeks, 0.8 g/kg crude drug, amlodipine 0.5 mg/kg, listed as amlodipine
structure (smiles),measurement,setting,value
"CCOC(=O)C1=C(COCCN)NC(C)=C(C(=O)OC)C1c1ccccc1Cl (stereo not drawn) [Amlodipine, amlodipine besylate]",diastolic blood pressure,[1]; [3],146.8 mmHg
same,systolic blood pressure,[1]; [3],178.2 mmHg
same,diastolic blood pressure,[1]; [4],148.5 mmHg
same,systolic blood pressure,[1]; [4],180.5 mmHg
same,diastolic blood pressure,[1]; [5],157.1 mmHg
same,systolic blood pressure,[1]; [5],203.5 mmHg
same,diastolic blood pressure,[1]; [6],157.6 mmHg
same,systolic blood pressure,[1]; [6],205.6 mmHg
same,diastolic blood pressure,[1]; [7],159.6 mmHg
same,systolic blood pressure,[1]; [7],212.7 mmHg and 212.7 ± 6.87 mmHg
same,2-hour hypotensive amplitude (peak of systolic blood pressure reduction),[1]; [8],34.5 mmHg
same,24-hour hypotensive amplitude (trough of systolic blood pressure reduction),[1]; [8],9.2 mmHg
same,valley-peak ratio of Systolic Blood Pressure Reduction,[1]; [8],0.27
same,2-hour hypotensive amplitude (peak of systolic blood pressure reduction),[1]; [9],32.2 mmHg
same,24-hour hypotensive amplitude (trough of systolic blood pressure reduction),[1]; [9],7.1 mmHg
same,valley-peak ratio of Systolic Blood Pressure Reduction,[1]; [9],0.22
same,diastolic blood pressure,[2]; [10],142.6 ± 5.78 mmHg
same,systolic blood pressure,[2]; [10],173.8 ± 5.26 mmHg
same,diastolic blood pressure,[2]; [11],143.7 ± 4.28 mmHg
same,systolic blood pressure,[2]; [11],175.5 ± 4.48 mmHg
same,diastolic blood pressure,[2]; [12],143.7±4.28 mmHg
same,systolic blood pressure,[2]; [12],175.5±4.48 mmHg
same,diastolic blood pressure,[2]; before treatment,157.4 ± 5.67 mmHg
same,systolic blood pressure,[2]; before treatment,206.3 ± 6.26 mmHg
